A short description of this test: copper-free click conjugation kinetics with DBCO-PEG. The conditions noted are these: 10-fold molar excess DBCO-PEG; 25° C., ionic strength 0.5 M (KCl), 0.005% Tween-20, phosphate buffer. Type of test: physicochemical. How it is done: The small molecule conjugation kinetics of pAzF and pAMF were compared. In particular, pAzF and pAMF were reacted at increasing concentrations with a 10-fold molar excess of dibenzocyclooctyl-polyethylene glycol (DBCO-PEG) compound (FIG. 2A and FIG. 2C) in a copper-free click reaction. First-order kinetics at 25° C., ionic strength 0.5 M (KCl), and 0.005% Tween-20 in phosphate buffer were determined under pseudo-first-order conditions in triplicate, using a SpectraMax M5 plate reader with 96-well polystyrene plates (Molecular Devices, Sunnyvale, Calif.). The formation of conjugated product was measured by the decrease in absorbance of the strained cyclooctoalkyne DBCO at 306 nm in the presence of increasing concentrations of pAzF or pAMF. The second-order rate constants were calculated according to kcat (M−1 sec-1)=kobs/[Azido].

As to `[N-]=[N+]=NCc1ccc(C[C@H](N)C(=O)O)cc1` [pAMF, para-azidomethyl-L-phenylalanine], the “reaction rate relative to pAzF” value is given as “seven-fold higher”.

Source of the values: patent US9938516B2, “Non-natural amino acid tRNA synthetases for para-methylazido-L-phenylalanine” (SUTRO BIOPHARMA, INC., priority 2013, dated 2018).
